According to the NIST ThermoML archive (doi:10.1021/je700339f):
± gives the expanded uncertainty stated by the source.

Assay: xn = mol fraction of the nth substance listed
Settings: 298 K, Liquid

ClCCCCCCCl [1,6-dichlorohexane] + CN(C)C=O
mass density [kg/m3]
Settings	x2 = 0.0986	x2 = 0.2013	x2 = 0.3197	x2 = 0.4014	x2 = 0.5033	x2 = 0.6037	x2 = 0.7034	x2 = 0.8019	x2 = 0.9008
100 kPa	1056.4 ± 2.7	1048.6 ± 2.8	1038.2 ± 2.8	1030.1 ± 3	1019 ± 3.1	1007.3 ± 3.2	994.3 ± 3.4	980 ± 3.7	963.6 ± 3.9
500 kPa	1056.6 ± 2.7	1048.8 ± 2.8	1038.4 ± 2.8	1030.3 ± 3	1019.3 ± 3.1	1007.6 ± 3.2	994.6 ± 3.4	980.3 ± 3.7	963.9 ± 3.9
1000 kPa	–	1049.2 ± 2.8	1038.8 ± 2.8	1030.7 ± 3	1019.6 ± 3.1	1007.9 ± 3.2	995 ± 3.4	980.6 ± 3.7	964.2 ± 3.9
1100 kPa	1057.1 ± 2.7	–	–	–	–	–	–	–	–
1500 kPa	1057.3 ± 2.7	1049.6 ± 2.8	1039.2 ± 2.8	1031.1 ± 3	1020 ± 3.1	1008.2 ± 3.2	995.3 ± 3.4	980.9 ± 3.7	964.5 ± 3.9
2000 kPa	1057.7 ± 2.7	1049.9 ± 2.8	1039.5 ± 2.8	1031.4 ± 3	1020.3 ± 3.1	1008.6 ± 3.2	995.6 ± 3.4	981.3 ± 3.7	964.8 ± 3.9
2500 kPa	1058 ± 2.7	1050.2 ± 2.8	1039.8 ± 2.8	1031.7 ± 3	1020.7 ± 3.1	1008.9 ± 3.2	995.9 ± 3.4	981.6 ± 3.7	965.1 ± 3.9
2900 kPa	–	–	–	–	1021 ± 3.1	–	–	–	–
3000 kPa	1058.4 ± 2.7	1050.6 ± 2.8	1040.2 ± 2.8	1032.1 ± 3	–	1009.2 ± 3.2	996.3 ± 3.4	981.9 ± 3.7	965.4 ± 3.9
3500 kPa	1058.7 ± 2.7	1050.9 ± 2.8	1040.5 ± 2.8	1032.4 ± 3	1021.3 ± 3.1	1009.6 ± 3.2	996.6 ± 3.4	982.2 ± 3.7	965.8 ± 3.9
4000 kPa	1059.1 ± 2.7	1051.3 ± 2.8	1040.8 ± 2.8	1032.8 ± 3	1021.7 ± 3.1	1009.9 ± 3.2	996.9 ± 3.4	982.6 ± 3.7	966.1 ± 3.9
4500 kPa	1059.4 ± 2.7	1051.6 ± 2.8	1041.2 ± 2.8	1033.2 ± 3	1022 ± 3.1	1010.2 ± 3.2	997.2 ± 3.4	982.9 ± 3.7	966.4 ± 3.9
4900 kPa	–	–	–	–	–	–	–	983.2 ± 3.7	–
5000 kPa	1059.8 ± 2.7	1052 ± 2.8	1041.5 ± 2.9	1033.4 ± 3	1022.3 ± 3.1	1010.5 ± 3.2	997.5 ± 3.4	–	966.7 ± 2.8
5500 kPa	1060.1 ± 2.7	1052.3 ± 2.8	1041.8 ± 2.9	1033.8 ± 3	1022.6 ± 3.1	1010.9 ± 3.2	997.8 ± 3.4	983.5 ± 3.7	967 ± 3.9
5900 kPa	–	–	–	–	–	1011.2 ± 3.2	–	–	–
6000 kPa	1060.4 ± 2.8	1052.6 ± 2.8	1042.2 ± 2.8	1034.2 ± 3	1023 ± 3.1	–	998.2 ± 3.4	983.9 ± 3.7	967.3 ± 3.9
6400 kPa	–	–	–	–	–	–	–	984.2 ± 3.7	–
6500 kPa	1060.8 ± 2.8	1053 ± 2.8	1042.6 ± 2.9	1034.5 ± 3	1023.3 ± 3.1	1011.5 ± 3.2	998.5 ± 3.4	–	967.7 ± 3.9
6900 kPa	–	–	–	1034.8 ± 3	–	–	–	–	967.8 ± 3.9
7000 kPa	1061.1 ± 2.8	1053.3 ± 2.8	1042.9 ± 2.9	–	1023.7 ± 3.1	1011.9 ± 3.2	998.8 ± 3.4	984.5 ± 3.7	–
7400 kPa	–	–	–	1035.1 ± 3	–	–	–	–	–
7500 kPa	1061.5 ± 2.8	1053.7 ± 2.8	1043.2 ± 2.9	–	1024 ± 3.1	1012.2 ± 3.2	999.1 ± 3.4	984.8 ± 3.7	968.2 ± 3.9
7900 kPa	1061.8 ± 2.8	–	–	–	–	–	–	–	–
8000 kPa	–	1054 ± 2.8	1043.5 ± 2.9	1035.5 ± 3	1024.4 ± 3.1	1012.6 ± 3.2	999.5 ± 3.5	985.1 ± 3.8	968.5 ± 3.9
8400 kPa	–	–	–	–	–	1012.8 ± 3.2	–	985.4 ± 3.7	968.8 ± 3.9
8500 kPa	1062.2 ± 2.8	1054.4 ± 2.8	1043.8 ± 2.9	1035.8 ± 3	1024.6 ± 3.1	–	999.8 ± 3.4	–	–
8900 kPa	–	–	–	–	–	1013.1 ± 3.2	–	–	–
9000 kPa	1062.5 ± 2.8	1054.7 ± 2.8	1044.2 ± 2.9	1036.1 ± 3	1025 ± 3.1	–	1000.1 ± 3.4	985.8 ± 3.8	969.1 ± 4
9400 kPa	–	–	–	–	–	–	–	–	969.4 ± 3.9
9500 kPa	1062.8 ± 2.8	1055.1 ± 2.8	1044.5 ± 2.9	1036.5 ± 3	1025.3 ± 3.1	1013.5 ± 3.2	1000.4 ± 3.4	986.1 ± 3.7	–
10000 kPa	1063.1 ± 2.8	1055.5 ± 2.8	1044.9 ± 2.9	1036.9 ± 3	1025.7 ± 3.1	1013.9 ± 3.2	1000.8 ± 3.5	986.4 ± 3.8	969.8 ± 4
10400 kPa	–	–	–	–	–	–	–	986.7 ± 3.8	969.9 ± 4
10500 kPa	1063.5 ± 2.8	1055.8 ± 2.8	1045.3 ± 2.9	1037.2 ± 3	1026 ± 3.1	1014.2 ± 3.2	1001.1 ± 3.4	–	–
10900 kPa	1063.8 ± 2.8	–	–	–	–	–	–	987 ± 3.8	–
11000 kPa	–	1056.1 ± 2.8	1045.5 ± 2.9	1037.5 ± 3	1026.4 ± 3.1	1014.5 ± 3.3	1001.4 ± 3.4	–	970.3 ± 4
11400 kPa	–	–	1045.8 ± 2.9	–	–	1014.8 ± 3.2	–	–	–
11500 kPa	1064.2 ± 2.8	1056.4 ± 2.8	–	1037.8 ± 3	1026.7 ± 3.1	–	1001.8 ± 3.5	987.4 ± 3.8	970.5 ± 4
11900 kPa	–	–	–	–	–	1015.1 ± 3.3	–	–	–
12000 kPa	1064.5 ± 2.8	1056.8 ± 2.8	1046.2 ± 2.9	1038.2 ± 3	1027 ± 3.1	–	1002 ± 3.5	987.6 ± 3.8	970.8 ± 4
12400 kPa	–	–	–	–	–	1015.4 ± 3.3	–	–	971.1 ± 4
12500 kPa	1064.9 ± 2.8	1057.1 ± 2.8	1046.5 ± 2.9	1038.4 ± 3	1027.3 ± 3.1	–	1002.4 ± 3.5	988 ± 3.8	–
12900 kPa	1065.2 ± 2.8	–	–	1038.8 ± 3	–	–	–	–	–
13000 kPa	–	1057.4 ± 2.8	1046.8 ± 2.9	–	1027.6 ± 3.1	1016 ± 3.3	1002.7 ± 3.5	988.2 ± 3.8	971.3 ± 4
13500 kPa	1065.5 ± 2.8	1057.8 ± 2.8	1047.2 ± 2.9	1039.2 ± 3	1028 ± 3.1	1016.3 ± 3.3	1003 ± 3.5	988.6 ± 3.8	971.6 ± 4
13900 kPa	–	–	–	1039.5 ± 3	–	–	–	–	–
14000 kPa	1065.8 ± 2.8	1058.1 ± 2.8	1047.5 ± 2.9	–	1028.3 ± 3.1	1016.6 ± 3.3	1003.3 ± 3.5	989 ± 3.8	971.9 ± 4
14400 kPa	–	–	–	–	–	1016.8 ± 3.3	–	–	–
14500 kPa	–	1058.4 ± 2.8	1047.8 ± 2.9	1039.8 ± 3	1028.6 ± 3.1	–	1003.5 ± 3.5	989.2 ± 3.8	972.2 ± 4
14600 kPa	1066.2 ± 2.8	–	–	–	–	–	–	–	–
15000 kPa	1066.5 ± 2.8	1058.7 ± 2.8	1048.2 ± 2.9	1040 ± 3	1028.9 ± 3.1	1017.3 ± 3.3	1003.9 ± 3.5	989.5 ± 3.8	972.6 ± 4
15400 kPa	–	–	–	–	1029.2 ± 3.1	1017.6 ± 3.3	–	–	–
15500 kPa	1066.9 ± 2.8	1059 ± 2.8	1048.6 ± 2.9	1040.4 ± 3	–	–	1004.2 ± 3.5	989.8 ± 3.8	972.8 ± 4
15900 kPa	–	1059.3 ± 2.8	–	1040.7 ± 3	–	–	–	990.1 ± 3.8	–
16000 kPa	1067.1 ± 3.2	–	1048.8 ± 2.9	–	1029.6 ± 3.1	1018 ± 3.3	1004.5 ± 3.5	–	973.1 ± 2.8
16400 kPa	–	1059.6 ± 2.9	–	1041 ± 3	–	–	–	–	–
16500 kPa	1067.4 ± 3.2	–	1049 ± 2.9	–	1030 ± 3.1	1018.2 ± 3.3	1004.8 ± 3.5	990.4 ± 3.8	973.4 ± 4
17000 kPa	1067.8 ± 2.8	1060 ± 2.9	1049.4 ± 2.9	1041.4 ± 3	1030.3 ± 3.1	1018.5 ± 3.3	1005.1 ± 3.5	990.7 ± 3.8	973.7 ± 4
17500 kPa	1068.2 ± 2.8	1060.3 ± 2.9	1049.7 ± 2.9	1041.7 ± 3	1030.5 ± 3.1	1018.8 ± 3.3	1005.4 ± 3.5	990.9 ± 3.8	974 ± 4
17900 kPa	–	–	1050 ± 2.9	–	–	–	–	991.2 ± 3.8	–
18000 kPa	1068.5 ± 2.9	1060.6 ± 2.9	–	1042 ± 3	1030.9 ± 3.1	1019.1 ± 3.3	1005.6 ± 3.5	–	974.3 ± 2.8
18500 kPa	1068.8 ± 2.9	1060.9 ± 2.9	1050.3 ± 2.9	1042.3 ± 3	1031.2 ± 3.1	1019.4 ± 3.3	1005.9 ± 3.5	991.5 ± 3.8	974.7 ± 4
19000 kPa	1069.2 ± 2.9	1061.2 ± 2.9	1050.7 ± 2.9	1042.6 ± 3	1031.5 ± 3.1	1019.8 ± 3.3	1006.3 ± 3.5	991.9 ± 3.8	975.1 ± 4
19400 kPa	–	1061.5 ± 2.9	–	–	–	–	–	–	–
19500 kPa	1069.5 ± 3.2	–	1051 ± 2.9	1042.9 ± 3	1031.8 ± 3.1	1020.1 ± 3.3	1006.6 ± 3.5	992.2 ± 3.8	975.4 ± 4
20000 kPa	1069.8 ± 2.9	1062 ± 2.9	1051.5 ± 2.9	1043.2 ± 3.1	1032.2 ± 3.1	1020.5 ± 3.3	1007 ± 3.5	992.5 ± 3.8	975.8 ± 4
